{"source": "patent US4426519A", "about": "“7-(2-Amino-4-thiazolyl)-acetamido cephalosporanic acids” (Roussel Uclaf, priority 1979, dated 1984)", "key": {"[1]": {"tested_on": "Klebsiella Pneumonia No. 52,145", "test": "Experimental infection of Klebsiella Pneumoniae in mice", "type": "in vivo", "conditions": "for Mice surviving on 8th day: by injection 1,5 and 24 hours after infection, controls 0/10; for Mortality after hours: by injection, group of 10 mice", "protocol": "The activity of the compound of Example 1 against an experimental infection of Klebsiella Pneumonia No. 52,145 was determined on groups of 10 mice having an average weight of 21 g by intraperitoneal injection of 0.5 ml of a culture thereof with a pH of 6 diluted to 1/1500."}, "Proteus Morganii A236": {"tested_on": "Proteus Morganii A236", "test": "Experimental infection of Proteus Morganii A236 in mice", "type": "in vivo", "conditions": "for Mice surviving on 8th day: cutaneously 1,5 and 24 hours after injection, controls 0/10; for Mortality after hours: cutaneously, group of 10 mice", "protocol": "The activity of the product of Example 1 against an experimental infection of Proteus Morganii […] was determined in groups of 10 mice weighing an average of 20.5 g which were infected by intraperitoneal injection of 0.5 ml of a culture thereof in a medium with a pH of 7 diluted to one tenth."}, "[2]": {"tested_on": "Streptococcus pyogenes A 561", "test": "MIC, dilution in liquid medium", "type": "cell-based", "protocol": "(§1) The method used was a dilution of a liquid medium where a series of tubes received the same quantity of a sterile nutritive media and increasing doses of the test compounds were placed therein. Then each tube was seeded with a bacterial strain and was incubated for 24 to 48 hours at 37° C. in an oven. The increasing inhibition was determined by transillulumination to determine the minimum inhibiting concentration (MIC in μg/ml) and the results are reported in the following Tables."}, "[3]": {"tested_on": "Staphylococcus aureus ATCC 6 538 Pen Sensitive", "test": "MIC, dilution in liquid medium", "type": "cell-based", "protocol": "as §1"}, "Providencia Du 48": {"tested_on": "Providencia Du 48", "test": "MIC, dilution in liquid medium", "type": "cell-based", "protocol": "as §1"}, "[4]": {"tested_on": "Proteus mirabilis (indol-) A 235", "test": "MIC, dilution in liquid medium", "type": "cell-based", "protocol": "as §1"}, "[5]": {"tested_on": "Klebsiella pneumoniae 2 536 Resistant Gentamycine", "test": "MIC, dilution in liquid medium", "type": "cell-based", "protocol": "as §1"}, "[6]": {"tested_on": "Escherichia Coli sensitive Tetracycline ATCC 9 637", "test": "MIC, dilution in liquid medium", "type": "cell-based", "protocol": "as §1"}, "[7]": {"tested_on": "Serratia Resistant Gentamycine 2 532", "test": "MIC, dilution in liquid medium", "type": "cell-based", "conditions": "read-out: MIC", "protocol": "as §1"}, "[8]": {"tested_on": "Staphylococcus aureus UC 1 128 Pen-resistant", "test": "MIC, dilution in liquid medium", "type": "cell-based", "protocol": "as §1"}, "[9]": {"tested_on": "Escherichia Coli Resistant Tetracycline ATCC 11 303", "test": "MIC, dilution in liquid medium", "type": "cell-based", "protocol": "as §1"}, "[10]": {"tested_on": "Staphylococcus aureus exp.n°54 146", "test": "MIC, dilution in liquid medium", "type": "cell-based", "protocol": "as §1"}, "[11]": {"tested_on": "Pseudomonas 8951 Resistant Gentamycine Tetracycline", "test": "MIC, dilution in liquid medium", "type": "cell-based", "protocol": "as §1"}, "[12]": {"tested_on": "Klebsiella pneumoniae Exp. 52 145", "test": "MIC, dilution in liquid medium", "type": "cell-based", "conditions": "read-out: MIC", "protocol": "as §1"}, "[13]": {"tested_on": "Bacillus subtilis ATCC 6 633", "test": "MIC, dilution in liquid medium", "type": "cell-based", "protocol": "as §1"}, "[14]": {"tested_on": "Salmonella typhimurium 420", "test": "MIC, dilution in liquid medium", "type": "cell-based", "conditions": "Salmonella enterica, read-out: MIC", "protocol": "as §1"}, "[15]": {"tested_on": "Escherichia Coli Resistant Gentamycine, Tobramycine R 55 123 D", "test": "MIC, dilution in liquid medium", "type": "cell-based", "conditions": "read-out: MIC", "protocol": "as §1"}, "Enterobacter cloacae 681": {"tested_on": "Enterobacter cloacae 681", "test": "MIC, dilution in liquid medium", "type": "cell-based", "protocol": "as §1"}, "Proteus mirabilis A 235": {"tested_on": "Proteus mirabilis A 235", "test": "Experimental infection of Proteus mirabilis in mice", "type": "in vivo", "conditions": "for Mice surviving on 8th day: subcutaneous 1, 5 and 24 hours after infection, controls 0/10; for Mortality after hours: subcutaneous, group of 10 mice", "protocol": "Groups of 10 mice with an average weight of 21.5 g received intraperitoneally 0.5 ml of a 24 hour old culture in oxoid bouillon of Proteus mirabilis A 235 diluted 1/10 with distilled water. The mice then received subcutaneously the compound of Example 1 one hour and 5 and 24 hours after the infection and the results are reported in the following Table."}, "Escherichia coli TO26 B6": {"tested_on": "Escherichia coli TO26 B6", "test": "Experimental infection with Escherichia coli TO26 B6 in mice", "type": "in vivo", "conditions": "for No. of mice surviving 8th day: subcutaneous 1, 5 and 24 hours after infection, control 0/10; for Mortality after hours: subcutaneous, group of 10 mice", "protocol": "The product of Example 1 was studied for its activity against an experimental infection of Escherichia coil in groups of 10 male mice weighing about 21.5 g. The mice received an intraperitoneal injection of 0.5 ml of a 24 hour old culture in a nutritive media of Escherichia Coli TO26 B6 of the Pasteur Institute diluted 1/5 with distilled water. The test product was administered subcutaneously 1 hour and 5 and 24 hours after the infection and the number of dead was determined after 8 days."}}, "note": "Counter-ions that a name gives are not always drawn. Like-named read-outs stand apart in the source and are kept apart here.", "data": [{"smiles": "CC(=O)OCC1=C(C(=O)O)N2C(=O)C(NC(=O)/C(=N\\OCCSC(=N)N)c3csc(N)n3)C2SC1", "note": "(stereo not drawn) [Example 1, Trifluoroacetate of the syn isomer of 3-acetoxymethyl-7-[2-(2-amino-4-thiazolyl)-2-(2-aminoiminomethylthio-ethoxyimino)acetamido]-ceph-3-eme-4-carboxylic acid]", "values": [{"measurement": "Mice surviving on 8th day", "setting": "[1]; dose 0,1 mg", "value": "6/10"}, {"measurement": "Mortality after hours", "setting": "[1]; dose 0,1 mg, 4 J", "value": 1}, {"measurement": "Mortality after hours", "setting": "[1]; dose 0,1 mg, 5 J", "value": 1}, {"measurement": "Mortality after hours", "setting": "[1]; dose 0,1 mg, 6 J", "value": 1}, {"measurement": "Mortality after hours", "setting": "[1]; dose 0,1 mg, 8 J", "value": 1}, {"measurement": "Mice surviving on 8th day", "setting": "[1]; dose 0,5 mg", "value": "9/10"}, {"measurement": "Mortality after hours", "setting": "[1]; dose 0,5 mg, 6 J", "value": 1}, {"measurement": "Mice surviving on 8th day", "setting": "[1]; dose 0,25 mg", "value": "8/10"}, {"measurement": "Mortality after hours", "setting": "[1]; dose 0,25 mg, 4 J", "value": 1}, {"measurement": "Mortality after hours", "setting": "[1]; dose 0,25 mg, 6 J", "value": 1}, {"measurement": "Mice surviving on 8th day", "setting": "[1]; dose 1 mg", "value": "10/10"}, {"measurement": "Mice surviving on 8th day", "setting": "[1]; dose 1,5 mg", "value": "10/10"}, {"measurement": "Mice surviving on 8th day", "setting": "Proteus Morganii A236; dose 0,1 mg", "value": "10/10"}, {"measurement": "Mice surviving on 8th day", "setting": "Proteus Morganii A236; dose 0,05 mg", "value": "2/10"}, {"measurement": "Mice surviving on 8th day", "setting": "Proteus Morganii A236; dose 0,5 mg", "value": "10/10"}, {"measurement": "Mortality after hours", "setting": "Proteus Morganii A236; dose 0,05 mg, 4H", "value": 1}, {"measurement": "Mortality after hours", "setting": "Proteus Morganii A236; dose 0,05 mg, 6H15", "value": 1}, {"measurement": "Mortality after hours", "setting": "Proteus Morganii A236; dose 0,05 mg, 6H", "value": 2}, {"measurement": "Mortality after hours", "setting": "Proteus Morganii A236; dose 0,05 mg, 21H10", "value": 3}, {"measurement": "Mortality after hours", "setting": "Proteus Morganii A236; dose 0,05 mg, 45H20", "value": 1}, {"measurement": "Mice surviving on 8th day", "setting": "Proteus Morganii A236; dose 0,25 mg", "value": "10/10"}, {"measurement": "MIC", "setting": "[2]; A561, 24 h", "value": 0.02, "unit": "µg/mL"}, {"measurement": "MIC", "setting": "[2]; A561, 48 h", "value": 0.02, "unit": "µg/mL"}, {"measurement": "MIC", "setting": "[3]; ATCC6, 24 h", "value": 2, "unit": "µg/mL"}, {"measurement": "MIC", "setting": "[3]; ATCC6, 48 h", "value": 2, "unit": "µg/mL"}, {"measurement": "MIC", "setting": "Providencia Du 48; DU48, 24 h", "value": 2, "unit": "µg/mL"}, {"measurement": "MIC", "setting": "Providencia Du 48; DU48, 48 h", "value": 3, "unit": "µg/mL"}, {"measurement": "MIC", "setting": "[4]; 24 h", "value": 0.1, "unit": "µg/mL"}, {"measurement": "MIC", "setting": "[4]; 48 h", "value": 0.1, "unit": "µg/mL"}, {"measurement": "MIC", "setting": "[5]; 24 h", "value": 1, "unit": "µg/mL"}, {"measurement": "MIC", "setting": "[5]; 48 h", "value": 2, "unit": "µg/mL"}, {"measurement": "MIC", "setting": "[6]; ATCC9, 24 h", "value": 1, "unit": "µg/mL"}, {"measurement": "MIC", "setting": "[6]; ATCC9, 48 h", "value": 1, "unit": "µg/mL"}, {"measurement": "MIC", "setting": "[7]; 24 h", "value": 0.5, "unit": "µg/mL"}, {"measurement": "MIC", "setting": "[7]; 48 h", "value": 0.5, "unit": "µg/mL"}, {"measurement": "MIC", "setting": "[8]; UC1, 24 h", "value": 2, "unit": "µg/mL"}, {"measurement": "MIC", "setting": "[8]; UC1, 48 h", "value": 3, "unit": "µg/mL"}, {"measurement": "MIC", "setting": "[9]; ATCC11, 24 h", "value": 0.05, "unit": "µg/mL"}, {"measurement": "MIC", "setting": "[9]; ATCC11, 48 h", "value": 0.05, "unit": "µg/mL"}, {"measurement": "MIC", "setting": "[10]; 24 h", "value": 2, "unit": "µg/mL"}, {"measurement": "MIC", "setting": "[10]; 48 h", "value": 2, "unit": "µg/mL"}, {"measurement": "MIC", "setting": "[11]; 24 h", "value": 20, "unit": "µg/mL"}, {"measurement": "MIC", "setting": "[11]; 48 h", "value": 20, "unit": "µg/mL"}, {"measurement": "MIC", "setting": "[12]; EXP.52145, 24 h", "value": 0.5, "unit": "µg/mL"}, {"measurement": "MIC", "setting": "[12]; EXP.52145, 48 h", "value": 0.5, "unit": "µg/mL"}, {"measurement": "MIC", "setting": "[13]; ATCC6, 24 h", "value": 1, "unit": "µg/mL"}, {"measurement": "MIC", "setting": "[13]; ATCC6, 48 h", "value": 1, "unit": "µg/mL"}, {"measurement": "MIC", "setting": "[14]; 24 h", "value": 0.5, "unit": "µg/mL"}, {"measurement": "MIC", "setting": "[14]; 48 h", "value": 0.5, "unit": "µg/mL"}, {"measurement": "MIC", "setting": "[15]; 24 h", "value": 0.5, "unit": "µg/mL"}, {"measurement": "MIC", "setting": "[15]; 48 h", "value": 0.5, "unit": "µg/mL"}, {"measurement": "MIC", "setting": "Enterobacter cloacae 681; Enterobacter cloacae, 681, 24 h", "value": 2, "unit": "µg/mL"}, {"measurement": "MIC", "setting": "Enterobacter cloacae 681; Enterobacter cloacae, 681, 48 h", "value": 2, "unit": "µg/mL"}, {"measurement": "Mice surviving on 8th day", "setting": "Proteus mirabilis A 235; dose 0,1 mg", "value": "10/10"}, {"measurement": "Mice surviving on 8th day", "setting": "Proteus mirabilis A 235; dose 0,05 mg", "value": "10/10"}, {"measurement": "Mice surviving on 8th day", "setting": "Proteus mirabilis A 235; dose 0,5 mg", "value": "10/10"}, {"measurement": "Mice surviving on 8th day", "setting": "Proteus mirabilis A 235; dose 0,25 mg", "value": "10/10"}, {"measurement": "Mice surviving on 8th day", "setting": "Proteus mirabilis A 235; dose 0,025 mg", "value": "7/10"}, {"measurement": "Mortality after hours", "setting": "Proteus mirabilis A 235; dose 0,025 mg, 23H45", "value": 1}, {"measurement": "Mortality after hours", "setting": "Proteus mirabilis A 235; dose 0,025 mg, 25 H", "value": 1}, {"measurement": "Mortality after hours", "setting": "Proteus mirabilis A 235; dose 0,025 mg, 31 H", "value": 1}, {"measurement": "No. of mice surviving 8th day", "setting": "Escherichia coli TO26 B6; dose 0.1 mg", "value": "6/10"}, {"measurement": "Mortality after hours", "setting": "Escherichia coli TO26 B6; dose 0.1 mg, 21H30", "value": 1}, {"measurement": "Mortality after hours", "setting": "Escherichia coli TO26 B6; dose 0.1 mg, 24 H", "value": 1}, {"measurement": "Mortality after hours", "setting": "Escherichia coli TO26 B6; dose 0.1 mg, 28 H", "value": 1}, {"measurement": "Mortality after hours", "setting": "Escherichia coli TO26 B6; dose 0.1 mg, 36 H", "value": 1}, {"measurement": "No. of mice surviving 8th day", "setting": "Escherichia coli TO26 B6; dose 0.25 mg", "value": "10/10"}]}]}
